Assay results taken from ChEMBL document CHEMBL1201862, “PubChem BioAssay data set” (2004).
The source made the active and inactive calls.

Key:
[1] = HeLa cell cytotoxicity, dose response, cytotoxicity control for MgcRacGAP inhibitor project (AID 624300); type: functional
[2] = molecular target: T1, Rac GTPase-activating protein 1 (Homo sapiens, UniProt Q9H0H5); experiment: MgcRacGAP GTPase-activating activity inhibitors, confirmation, biochemical, ADP Hunter fluorescence, primary and confirmatory (AID 624330); type: functional
T1 sequence (Q9H0H5 whole entry): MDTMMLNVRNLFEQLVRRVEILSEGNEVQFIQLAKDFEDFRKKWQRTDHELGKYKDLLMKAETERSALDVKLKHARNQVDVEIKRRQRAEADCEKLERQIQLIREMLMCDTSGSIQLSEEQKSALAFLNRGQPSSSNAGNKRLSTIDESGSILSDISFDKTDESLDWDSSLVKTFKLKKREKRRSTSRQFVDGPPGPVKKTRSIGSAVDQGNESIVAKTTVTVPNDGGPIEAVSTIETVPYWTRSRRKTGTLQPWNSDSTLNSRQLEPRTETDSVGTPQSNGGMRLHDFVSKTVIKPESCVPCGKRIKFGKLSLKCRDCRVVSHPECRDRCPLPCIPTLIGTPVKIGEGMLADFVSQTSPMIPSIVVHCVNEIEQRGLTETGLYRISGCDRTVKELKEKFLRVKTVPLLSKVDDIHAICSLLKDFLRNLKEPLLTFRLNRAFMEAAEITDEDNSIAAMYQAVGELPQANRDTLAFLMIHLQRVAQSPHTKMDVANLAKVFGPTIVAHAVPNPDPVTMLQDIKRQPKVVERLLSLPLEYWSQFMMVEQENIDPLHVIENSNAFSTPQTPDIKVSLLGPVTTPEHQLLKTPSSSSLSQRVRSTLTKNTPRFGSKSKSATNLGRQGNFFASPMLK

[3] = molecular target: T2, Long-chain-fatty-acid--AMP ligase FadD28 (Mycobacterium tuberculosis, UniProt P9WQ59); experiment: Fluorescence polarization aasay to screen for inhibitors that compete for the binding of FadD28 to a bisubstrate Measured in Biochemical System Using Plate Reader - 2147-01_Inhibitor_Dose_CherryPick_Activity.; type: functional, Mycobacterium tuberculosis H37Rv
T2 sequence (P9WQ59 whole entry): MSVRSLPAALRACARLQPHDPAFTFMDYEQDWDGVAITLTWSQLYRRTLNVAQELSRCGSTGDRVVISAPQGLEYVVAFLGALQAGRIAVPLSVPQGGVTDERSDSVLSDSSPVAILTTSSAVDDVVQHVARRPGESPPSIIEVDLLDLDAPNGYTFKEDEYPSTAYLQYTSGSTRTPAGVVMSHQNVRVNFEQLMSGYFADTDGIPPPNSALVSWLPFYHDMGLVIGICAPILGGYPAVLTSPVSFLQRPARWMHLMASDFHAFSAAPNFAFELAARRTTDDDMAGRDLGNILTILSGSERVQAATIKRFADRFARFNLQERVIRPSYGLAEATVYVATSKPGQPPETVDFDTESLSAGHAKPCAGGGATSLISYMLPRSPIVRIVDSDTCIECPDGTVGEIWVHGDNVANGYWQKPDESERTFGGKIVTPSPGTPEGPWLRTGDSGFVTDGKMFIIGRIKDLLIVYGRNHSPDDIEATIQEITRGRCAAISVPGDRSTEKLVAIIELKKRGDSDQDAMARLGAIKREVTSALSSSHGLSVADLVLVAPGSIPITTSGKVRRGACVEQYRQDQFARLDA

[4] = molecular target: 5-hydroxytryptamine receptor 2A (Mus musculus, UniProt P35363); type: functional, cell-based;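 note: CHO-K1 cells with tagged receptor and beta-arrestin; agonist potency measured as compound-induced activation of the receptor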
Mu-type opioid receptor = Mu-type opioid receptor (Homo sapiens, UniProt P35372); type: functional, cell-based;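 note: U2OS cells with beta-arrestin recruitment to OPRM1 by beta-gal complementation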
[5] = molecular target: T3, Corticotropin-releasing factor receptor 2/Corticotropin-releasing factor-binding protein (Homo sapiens, UniProt P24387+Q13324); experiment: activators of CRF receptor 2 with binding protein – uHTS hits, confirmation (AID 602473); type: functional; settings: read-out: EC50_Mean
T3 sequence (Q13324 whole entry): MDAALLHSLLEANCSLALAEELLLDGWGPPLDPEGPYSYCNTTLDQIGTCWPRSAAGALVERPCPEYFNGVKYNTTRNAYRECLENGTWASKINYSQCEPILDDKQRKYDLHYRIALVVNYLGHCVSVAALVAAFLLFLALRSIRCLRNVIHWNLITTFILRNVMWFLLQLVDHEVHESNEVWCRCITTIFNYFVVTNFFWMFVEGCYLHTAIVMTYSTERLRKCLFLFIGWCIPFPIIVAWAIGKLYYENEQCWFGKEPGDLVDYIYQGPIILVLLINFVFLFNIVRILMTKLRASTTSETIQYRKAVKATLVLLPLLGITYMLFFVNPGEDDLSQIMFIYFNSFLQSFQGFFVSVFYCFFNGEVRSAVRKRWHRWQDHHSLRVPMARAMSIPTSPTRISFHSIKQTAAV
T3 sequence (P24387 whole entry): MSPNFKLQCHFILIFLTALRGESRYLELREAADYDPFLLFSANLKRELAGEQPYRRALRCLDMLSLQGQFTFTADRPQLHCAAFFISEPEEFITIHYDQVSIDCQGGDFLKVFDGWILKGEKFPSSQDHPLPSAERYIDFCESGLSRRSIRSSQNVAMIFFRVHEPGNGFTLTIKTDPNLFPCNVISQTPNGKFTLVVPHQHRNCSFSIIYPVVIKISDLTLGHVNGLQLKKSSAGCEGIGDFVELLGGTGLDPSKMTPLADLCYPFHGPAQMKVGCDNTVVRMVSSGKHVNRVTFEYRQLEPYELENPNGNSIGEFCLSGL

[6] = molecular target: T4, Heat shock factor protein 1 (Mus musculus, UniProt P38532); experiment: HSF1 potentiators in luciferase reporter cells, confirmation, cell-based, NIH3T3, luminescence, dose retest (AID 435004); type: functional;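 note: stress induced by proteasome inhibitor MG132 added 30 min after compound; luciferase reporter driven by HSF1 response element in NIH3T3 cells; actives raise luminescence as potentiators of the MG132 stress response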
T4 sequence (P38532 whole entry): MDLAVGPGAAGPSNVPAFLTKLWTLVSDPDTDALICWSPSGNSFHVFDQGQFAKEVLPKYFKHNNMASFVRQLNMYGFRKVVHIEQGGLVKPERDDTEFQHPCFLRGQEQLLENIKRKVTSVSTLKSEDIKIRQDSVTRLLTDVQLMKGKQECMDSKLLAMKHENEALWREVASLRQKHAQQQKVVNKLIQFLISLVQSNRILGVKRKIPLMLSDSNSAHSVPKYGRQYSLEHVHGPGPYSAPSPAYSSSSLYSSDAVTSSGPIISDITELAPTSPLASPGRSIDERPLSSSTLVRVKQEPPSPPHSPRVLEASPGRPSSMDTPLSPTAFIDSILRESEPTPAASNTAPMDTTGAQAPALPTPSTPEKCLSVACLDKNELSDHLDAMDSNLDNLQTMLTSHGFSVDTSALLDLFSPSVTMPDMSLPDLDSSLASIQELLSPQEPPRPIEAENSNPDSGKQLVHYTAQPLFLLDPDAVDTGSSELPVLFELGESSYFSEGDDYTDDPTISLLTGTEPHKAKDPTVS

[7] = molecular target: T3, Corticotropin-releasing factor receptor 2/Corticotropin-releasing factor-binding protein; experiment: Dose Response confirmation of uHTS hits for small molecule antagonists of the CRF-binding protein and CRF-R2 receptor complex.; type: functional; settings: read-out: IC50_Mean
Albumin = Albumin (Bos taurus, UniProt P02769); experiment: Counterscreen for inhibitors of T-cell receptor (TCR)-CD3 interaction: Fluorescence-based biochemical high throughput dose response assay to identify inhibitors of T-cell receptor (TCR)-CD3 interaction using a TAMRA-labeled BSA probe.; type: functional
[8] = molecular target: T5, Short transient receptor potential channel 4 (Mus musculus, UniProt Q9QUQ5); experiment: mouse TRPC4 channel inhibitors, dose response, cell-based, HEK293 TRPC4/mu-opioid, Fluo-4 calcium (AID 434942); type: functional;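 note: potency of inhibitors blocking the TRPC4 calcium response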
T5 sequence (Q9QUQ5 whole entry): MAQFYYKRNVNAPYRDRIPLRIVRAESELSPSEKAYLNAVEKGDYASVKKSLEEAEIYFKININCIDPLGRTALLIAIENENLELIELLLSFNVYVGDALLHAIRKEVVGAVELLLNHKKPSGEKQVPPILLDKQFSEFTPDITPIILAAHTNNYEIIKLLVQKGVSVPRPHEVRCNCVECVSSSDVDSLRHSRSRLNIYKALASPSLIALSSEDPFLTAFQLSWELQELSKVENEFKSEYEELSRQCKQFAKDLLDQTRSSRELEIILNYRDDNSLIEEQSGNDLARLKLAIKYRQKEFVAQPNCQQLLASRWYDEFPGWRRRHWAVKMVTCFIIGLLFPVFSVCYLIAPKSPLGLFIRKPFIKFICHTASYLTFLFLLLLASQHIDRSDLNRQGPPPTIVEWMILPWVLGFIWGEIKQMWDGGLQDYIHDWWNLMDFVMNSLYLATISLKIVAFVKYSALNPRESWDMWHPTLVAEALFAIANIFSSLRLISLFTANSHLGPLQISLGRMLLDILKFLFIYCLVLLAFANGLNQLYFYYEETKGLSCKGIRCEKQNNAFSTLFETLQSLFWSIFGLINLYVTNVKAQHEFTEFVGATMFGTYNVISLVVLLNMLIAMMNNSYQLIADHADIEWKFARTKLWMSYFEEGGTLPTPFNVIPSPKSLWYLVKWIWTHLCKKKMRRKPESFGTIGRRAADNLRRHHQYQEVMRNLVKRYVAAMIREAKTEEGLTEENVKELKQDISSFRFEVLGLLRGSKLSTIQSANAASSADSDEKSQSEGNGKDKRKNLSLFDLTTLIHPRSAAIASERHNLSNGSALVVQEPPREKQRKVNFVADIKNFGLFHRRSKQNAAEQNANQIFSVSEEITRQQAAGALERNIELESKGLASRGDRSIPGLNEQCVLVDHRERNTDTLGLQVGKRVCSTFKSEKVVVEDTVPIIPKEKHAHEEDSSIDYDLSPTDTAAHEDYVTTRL

[9] = molecular target: T6, DNA repair protein RAD52 homolog (Homo sapiens, UniProt P43351); type: functional, biochemical
T6 sequence (P43351 whole entry): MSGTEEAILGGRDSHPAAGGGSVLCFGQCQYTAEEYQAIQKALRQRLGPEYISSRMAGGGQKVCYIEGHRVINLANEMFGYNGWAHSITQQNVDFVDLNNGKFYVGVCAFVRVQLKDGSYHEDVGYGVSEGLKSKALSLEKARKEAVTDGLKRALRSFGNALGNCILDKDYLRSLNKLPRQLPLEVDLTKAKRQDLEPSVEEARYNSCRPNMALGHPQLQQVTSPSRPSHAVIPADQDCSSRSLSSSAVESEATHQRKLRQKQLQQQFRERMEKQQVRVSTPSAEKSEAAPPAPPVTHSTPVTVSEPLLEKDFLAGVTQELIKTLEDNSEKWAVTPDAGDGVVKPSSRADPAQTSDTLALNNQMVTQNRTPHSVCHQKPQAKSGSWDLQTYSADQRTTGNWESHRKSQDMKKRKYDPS

[10] = molecular target: ADP-ribosylation factor GTPase-activating protein 1 (Rattus norvegicus, UniProt Q62848); experiment: Fluorescence polarization-based biochemical high throughput dose response screening assay to identify inhibitors of ADP-ribosylation factor GTPase activating protein 1 (ARFGAP1).; type: functional
[11] = molecular target: Arf-GAP with SH3 domain, ANK repeat and PH domain-containing protein 1 (Homo sapiens, UniProt Q9ULH1); type: functional;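 note: biochemical fluorescence polarization dose–response screen measuring inhibition of ASAP1; ASAP1 GAP domain stimulating GTP hydrolysis by truncated human ARF1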
Sequence of Arf-GAP with SH3 domain, ANK repeat and PH domain-containing protein 1 (Q9ULH1 whole entry, the tested form may be a part): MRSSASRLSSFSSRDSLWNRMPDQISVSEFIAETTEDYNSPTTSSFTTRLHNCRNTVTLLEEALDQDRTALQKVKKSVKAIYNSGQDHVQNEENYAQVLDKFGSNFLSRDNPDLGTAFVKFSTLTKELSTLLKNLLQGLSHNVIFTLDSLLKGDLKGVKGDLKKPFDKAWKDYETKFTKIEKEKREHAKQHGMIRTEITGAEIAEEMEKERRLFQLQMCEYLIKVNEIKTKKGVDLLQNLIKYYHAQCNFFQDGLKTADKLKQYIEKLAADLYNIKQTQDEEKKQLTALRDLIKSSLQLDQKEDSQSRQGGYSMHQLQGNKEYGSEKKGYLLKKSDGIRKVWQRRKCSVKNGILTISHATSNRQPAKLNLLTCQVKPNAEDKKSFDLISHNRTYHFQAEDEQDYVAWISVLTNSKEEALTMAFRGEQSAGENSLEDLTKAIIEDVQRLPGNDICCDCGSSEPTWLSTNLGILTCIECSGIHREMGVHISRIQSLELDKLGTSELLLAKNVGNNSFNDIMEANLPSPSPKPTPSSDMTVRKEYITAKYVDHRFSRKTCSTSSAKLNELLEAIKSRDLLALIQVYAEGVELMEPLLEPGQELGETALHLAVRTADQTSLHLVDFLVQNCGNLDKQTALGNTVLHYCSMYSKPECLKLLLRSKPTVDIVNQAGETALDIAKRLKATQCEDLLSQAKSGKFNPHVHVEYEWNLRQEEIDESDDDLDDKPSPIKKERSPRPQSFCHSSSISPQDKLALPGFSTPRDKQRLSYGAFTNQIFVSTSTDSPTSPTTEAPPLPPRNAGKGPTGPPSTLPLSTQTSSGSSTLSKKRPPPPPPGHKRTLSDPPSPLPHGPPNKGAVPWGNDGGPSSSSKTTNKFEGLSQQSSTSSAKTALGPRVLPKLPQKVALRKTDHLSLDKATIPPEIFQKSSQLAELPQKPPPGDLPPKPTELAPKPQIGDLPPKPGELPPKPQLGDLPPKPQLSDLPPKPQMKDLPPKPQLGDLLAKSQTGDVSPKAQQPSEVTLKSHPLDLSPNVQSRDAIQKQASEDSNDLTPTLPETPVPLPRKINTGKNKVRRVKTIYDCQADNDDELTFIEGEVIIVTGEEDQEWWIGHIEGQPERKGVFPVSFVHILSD

Sequence of Mu-type opioid receptor (P35372 whole entry): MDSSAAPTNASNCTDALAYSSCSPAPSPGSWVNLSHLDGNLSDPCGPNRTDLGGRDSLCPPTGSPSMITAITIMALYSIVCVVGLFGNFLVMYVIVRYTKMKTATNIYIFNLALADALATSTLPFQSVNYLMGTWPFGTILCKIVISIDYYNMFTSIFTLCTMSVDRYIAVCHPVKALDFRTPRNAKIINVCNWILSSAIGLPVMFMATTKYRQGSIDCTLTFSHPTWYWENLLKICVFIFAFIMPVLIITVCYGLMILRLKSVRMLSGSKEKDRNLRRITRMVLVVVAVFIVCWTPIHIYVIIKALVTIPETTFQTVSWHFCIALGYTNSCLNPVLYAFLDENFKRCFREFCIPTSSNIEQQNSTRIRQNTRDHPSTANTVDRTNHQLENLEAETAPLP
Sequence of 5-hydroxytryptamine receptor 2A (P35363 whole entry): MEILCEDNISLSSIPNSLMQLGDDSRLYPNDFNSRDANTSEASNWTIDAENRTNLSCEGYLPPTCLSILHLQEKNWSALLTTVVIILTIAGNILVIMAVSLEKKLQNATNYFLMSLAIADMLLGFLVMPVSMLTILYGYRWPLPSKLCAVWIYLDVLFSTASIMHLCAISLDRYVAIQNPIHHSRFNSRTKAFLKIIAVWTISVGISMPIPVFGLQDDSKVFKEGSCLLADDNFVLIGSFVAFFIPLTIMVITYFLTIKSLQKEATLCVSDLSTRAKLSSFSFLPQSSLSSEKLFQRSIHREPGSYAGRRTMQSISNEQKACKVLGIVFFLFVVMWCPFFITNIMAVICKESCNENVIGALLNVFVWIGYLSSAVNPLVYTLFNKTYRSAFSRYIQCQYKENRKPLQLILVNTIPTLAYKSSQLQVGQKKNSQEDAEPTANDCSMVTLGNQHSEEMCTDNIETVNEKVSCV
Sequence of ADP-ribosylation factor GTPase-activating protein 1 (Q62848 whole entry, the tested form may be a part): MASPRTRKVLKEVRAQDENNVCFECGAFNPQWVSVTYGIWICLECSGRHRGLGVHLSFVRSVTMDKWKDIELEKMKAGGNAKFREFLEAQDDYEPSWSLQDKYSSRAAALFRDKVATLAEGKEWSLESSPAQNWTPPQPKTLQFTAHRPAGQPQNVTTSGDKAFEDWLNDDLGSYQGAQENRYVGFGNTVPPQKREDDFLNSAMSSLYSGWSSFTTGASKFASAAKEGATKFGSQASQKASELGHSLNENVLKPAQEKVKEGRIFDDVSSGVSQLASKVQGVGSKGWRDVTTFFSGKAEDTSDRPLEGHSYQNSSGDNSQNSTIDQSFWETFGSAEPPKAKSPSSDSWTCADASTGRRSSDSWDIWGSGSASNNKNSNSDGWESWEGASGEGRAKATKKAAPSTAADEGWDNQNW
Sequence of Albumin (P02769 whole entry): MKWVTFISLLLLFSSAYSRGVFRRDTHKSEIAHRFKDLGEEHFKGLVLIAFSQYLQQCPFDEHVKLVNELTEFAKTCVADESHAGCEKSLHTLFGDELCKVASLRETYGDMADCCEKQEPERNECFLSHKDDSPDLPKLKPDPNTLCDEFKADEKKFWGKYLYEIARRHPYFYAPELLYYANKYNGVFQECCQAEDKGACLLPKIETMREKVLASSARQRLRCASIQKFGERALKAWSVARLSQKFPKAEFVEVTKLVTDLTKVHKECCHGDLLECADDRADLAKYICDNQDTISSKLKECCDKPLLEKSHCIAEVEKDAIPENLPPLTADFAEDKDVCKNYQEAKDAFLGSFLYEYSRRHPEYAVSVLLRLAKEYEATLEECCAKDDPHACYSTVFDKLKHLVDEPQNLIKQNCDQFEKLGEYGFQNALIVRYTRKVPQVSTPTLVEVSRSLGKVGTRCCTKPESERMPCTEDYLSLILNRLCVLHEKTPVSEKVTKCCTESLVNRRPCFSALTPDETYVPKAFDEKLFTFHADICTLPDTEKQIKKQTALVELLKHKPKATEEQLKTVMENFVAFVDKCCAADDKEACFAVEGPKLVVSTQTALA

With `Cc1ccc(Cl)c(OCCCN(C)Cc2ccccc2)c1` the CC50 [1] was 100 µM (active) and the IC50 [2] was 165 µM (active).
With `CN(C)S(=O)(=O)c1cccc(C(=O)OCC(=O)Nc2sccc2C#N)c1` the AC50 [3] was > 100 µM (inactive).
In the case of `O=Cc1ccc(N2N=C(c3ccccc3)CC2c2ccccc2)cc1` (stereo unspecified), the AC50 [3] is reported as 26.5 µM (active).
With `COc1ccc(CC2(CO)CCN(Cc3cc4ccccc4o3)CC2)cc1` the EC50 [4] was 1.07 µM (active) and the EC50 (Mu-type opioid receptor) was 92.5 µM (inactive).
With `CCc1ccc(O)c(/N=C/c2ccccc2O)c1` the CC50 [1] was 100 µM (active) and the IC50 [2] was 36.9 µM (active).
For `CN1c2ccccc2C(O)=C(C(S)=Nc2ccc(Cl)cc2)S1(=O)=O`, the EC50 [5] was > 53 µM (inactive), the EC50 [6] was > 260 µM (inconclusive) and the IC50 [7] was 24.7 µM (active). The AC50 [3] was > 100 µM (inactive).
In the case of `COc1ccc(C(=O)NC(=S)NNC(=O)c2ccc(O)cc2)cc1[N+](=O)[O-]`, the IC50 (Albumin) is reported as > 94.1 µM (inactive).
In the case of `CC(COc1ccccc1)N1CCC(CO)(Cc2ccccc2)CC1` (stereo unspecified), the EC50 [8] is reported as 5.96 µM (active), the EC50 [4] is reported as 0.59 µM (active) and the EC50 (Mu-type opioid receptor) is reported as 92.5 µM (inactive).
In the case of `Nc1ccc(CC2=NCCN2)cc1`, the AC50 [9] is reported as 0.739 µM (active).
With `COc1ccc(CN2CCN(c3ccccn3)CC2)c(OC)c1` the EC50 [4] was 0.529 µM (active) and the EC50 (Mu-type opioid receptor) was 92.5 µM (inactive).
In the case of `O=C(COc1ccc2oc(-c3ccco3)cc(=O)c2c1)N1CCCCC1`, the IC50 [10] is reported as 28.5 µM (inactive) and the IC50 [11] is reported as 22.4 µM (inactive).
